Data reported in patent US6806230B1, “Pyrimidine derivatives and herbicides containing them” (Kumiai Chemical Industry Co., Ltd., priority 1999, dated 2004).

What was measured:
Type in all cases: in vivo
barnyard grass (Eo) [1] = assay: Test Example 1: herbicidal effects by flooded paddy field treatment; design: herbicidal effects, Eo (barnyard grass):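 0-5 growth inhibition grade; 5 = over 90%; 4 = 70-90%; 3 = 50-70%; 2 = 30-50%; 1 = 10-30%; 0 = under 10%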; conditions: for Herbicidal effect index, Eo: dose 100 gai/10a, examined on 21st day after treatment, index 0-5 per Table 44; for herbicidal effects, Eo (barnyard grass): dose 100 g active ingredient per 10 ares, examined on the 21st day after treatment, standards of Table 44;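 as to Herbicidal effect index, Eo: 0-5 growth inhibition grade; 5 = over 90%; 4 = 70-90%; 3 = 50-70%; 2 = 30-50%; 1 = 10-30%; 0 = under 10%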
Method in brief: (§1)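 Pots hold puddled paddy soil; seeds are sown and the pots flooded 3 cm deep. Next day, diluted wettable powder goes dropwise onto the water at a dose of 100 g active ingredient per 10 ares, and herbicidal effects are rated after 21 days in a greenhouse.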

monochoria (Mo) [2] = assay: as above; design: herbicidal effects, Mo (monochoria):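 0-5 growth inhibition grade; 5 = over 90%; 4 = 70-90%; 3 = 50-70%; 2 = 30-50%; 1 = 10-30%; 0 = under 10%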; conditions: for Herbicidal effect index, Mo: dose 100 gai/10a, examined on 21st day after treatment, index 0-5 per Table 44; for herbicidal effects, Mo (monochoria): dose 100 g active ingredient per 10 ares, examined on the 21st day after treatment, standards of Table 44
Method in brief: as §1

barnyard grass (Eo) [3] = assay: Test Example 4: selectivity for a crop plant by flooded paddy field treatment; design: scale not given here; conditions: for Eo (herbicidal effects, index): dose 25 g active ingredient per 10 ares, examined on the 21st day after treatment; for Eo (herbicidal effect index): barnyard grass, dose 25 gai/10a, 21st day after treatment, index per Table 44
Method in brief: (§2)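 Rice at the second-leaf stage is transplanted into puddled, 3 cm-flooded paddy soil alongside sown weed seeds, and a diluted wettable powder is dripped onto the water surface the following day at 25 g a.i./10 ares. Effects are rated 21 days later.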

monochoria (Mo) [4] = assay: as above; design: scale not given here; conditions: for Mo (herbicidal effects, index): dose 25 g active ingredient per 10 ares, examined on the 21st day after treatment; for Mo (herbicidal effect index): monochoria, dose 25 gai/10a, 21st day after treatment, index per Table 44
Method in brief: as §2

rice (Or) = assay: as above; design: scale not given here; conditions: rice transplanted at second leaf stage; for Or (effect on crop plant rice, index): dose 25 g active ingredient per 10 ares, examined on the 21st day after treatment; for Or (herbicidal effect index on crop): dose 25 gai/10a, 21st day after treatment, index per Table 44
Method in brief: as §2

green foxtail (Se) = assay: Test Example 2: herbicidal effects by upland soil treatment; conditions: dose 100 g active ingredient per 10 ares, examined on the 21st day after treatment, standards of Table 44;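 also: 0-5 growth inhibition grade; 5 = over 90%; 4 = 70-90%; 3 = 50-70%; 2 = 30-50%; 1 = 10-30%; 0 = under 10%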
Method in brief: (§3)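 Pre-emergence test: barnyard grass and green foxtail sown in upland soil, then soil surface sprayed with wettable-powder formulation at 100 g active ingredient per 10 ares (100 l per 10 ares). Grown in greenhouse; herbicidal effect scored on a rating scale 21 days after treatment.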

barnyard grass (Ec) [5] = assay: as above; design: scale not given here; conditions: dose 100 g active ingredient per 10 ares, examined on the 21st day after treatment, standards of Table 44
Method in brief: as §3

barnyard grass (Ec) [6] = assay: Test Example 3: herbicidal effects by foliage treatment in upland field; design: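 0-5 growth inhibition grade; 5 = over 90%; 4 = 70-90%; 3 = 50-70%; 2 = 30-50%; 1 = 10-30%; 0 = under 10%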; conditions: dose 100 g active ingredient per 10 ares, examined on the 14th day after treatment
Method in brief: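 Barnyard grass and green foxtail were grown in upland soil for 2 weeks in a greenhouse. A water-diluted wettable powder was sprayed over the foliage at 100 l per 10 ares, giving 100 g active ingredient per 10 ares. Herbicidal effect was scored on day 14 after treatment.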
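For Herbicidal effect index, Mo in this document: 0-5 growth inhibition grade; 5 = over 90%; 4 = 70-90%; 3 = 50-70%; 2 = 30-50%; 1 = 10-30%; 0 = under 10%.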

Row | Or (effect on crop plant rice, index) (rice (Or)) | SMILES | Herbicidal effect index, Eo (barnyard grass (Eo) [1]) | Herbicidal effect index, Mo (monochoria (Mo) [2]) | Eo (herbicidal effects, index) (barnyard grass (Eo) [3]) | Mo (herbicidal effects, index) (monochoria (Mo) [4]) | herbicidal effects, Se (green foxtail) (green foxtail (Se)) | herbicidal effects, Ec (barnyard grass) (barnyard grass (Ec) [5]) | Ec (herbicidal effects, index) (barnyard grass (Ec) [6]) | herbicidal effects, Eo (barnyard grass) (barnyard grass (Eo) [1]) | herbicidal effects, Mo (monochoria) (monochoria (Mo) [2]) | Eo (herbicidal effect index) (barnyard grass (Eo) [3]) | Mo (herbicidal effect index) (monochoria (Mo) [4]) | Or (herbicidal effect index on crop) (rice (Or))
1 | 1 | CCOc1ccc(CC(=O)N(C)C(c2cncnc2C(F)(F)F)C(C)C)cc1 (racemic) [Compound 1-13] | 5 | 5 | 5 | 5 | 5 | 5 | 5 | – | – | – | – | –
2 | – | CC(C)C(c1cncnc1C(F)(F)F)N(C)C(=S)Cc1ccc(Cl)cc1 (racemic) [Compound 1-144] | – | – | – | – | 5 | 5 | 4 | 5 | 5 | 5 | 5 | 1
3 | 1 | CCN(C(=O)Cc1ccccc1)C(c1cncnc1C(F)(F)F)C(C)C (racemic) [Compound 1-26] | 5 | 5 | 5 | 5 | 5 | 5 | 4 | – | – | – | – | –
4 | 0 | CC(C)C(c1cncnc1C(F)(F)F)N(C)C(=O)Cc1ccc(Br)cc1 (racemic) [Compound 1-41] | 5 | 5 | 5 | 5 | 5 | 5 | 5 | – | – | – | – | –
5 | – | CN(C(=O)Cc1ccc(F)cc1)C(c1ccc(F)cc1)c1cncnc1C(F)(F)F (racemic) [1-218] | – | – | – | – | 5 | 5 | 4 | 5 | 5 | 5 | 5 | 1
6 | – | CSc1ncncc1C(C(C)C)N(C)C(=O)Cc1ccc(F)cc1 (racemic) [Compound 1-152] | – | – | – | – | 5 | 5 | 4 | 5 | 5 | 5 | 5 | 1
7 | – | Cc1ccc(CC(=O)N(C)C(c2ccc(F)cc2)c2cncnc2C(F)(F)F)cc1 (racemic) [1-220] | – | – | – | – | 5 | 5 | 5 | 5 | 5 | 5 | 5 | 1
8 | – | C#CCN(C(=O)Cc1ccc(F)cc1)C(c1cncnc1C(F)(F)F)C(C)C (racemic) [Compound 1-172] | – | – | – | – | 5 | 5 | 5 | 5 | 5 | 5 | 5 | 1
9 | 1 | CC(C)C(c1cncnc1C(F)(F)F)N(C)C(=O)Cc1cccc(Cl)c1 (racemic) [Compound 1-21] | 5 | 5 | 5 | 5 | 5 | 5 | 4 | – | – | – | – | –
10 | – | CC(C)C(c1cncnc1C(F)(F)F)N(C)C(=O)COc1cccc(Cl)c1 (racemic) [Compound 1-133] | – | – | – | – | 5 | 5 | 5 | 5 | 5 | 5 | 5 | 1
11 | – | CCCC(c1cncnc1C(F)(F)F)N(C)C(=O)Cc1ccc(C)cc1 (racemic) [Compound 1-113] | 5 | 5 | – | – | 4 | 5 | 4 | – | – | 5 | 5 | 0
12 | 1 | Cc1ncncc1C(C(C)C)N(C)C(=O)Cc1ccccc1 (racemic) [Compound 1-87] | 5 | 5 | 5 | 5 | 5 | 5 | 4 | – | – | – | – | –
13 | – | CSc1ncncc1C(C(C)C)N(C)C(=O)Cc1ccc(C)cc1 (racemic) [Compound 1-153] | – | – | – | – | 5 | 5 | 4 | 5 | 5 | 5 | 5 | 1
14 | – | CC(C(=O)N(C)C(c1cncnc1C(F)(F)F)C(C)C)c1ccccc1 (mixture of isomers) [1-195] | – | – | – | – | 5 | 5 | 5 | 5 | 5 | – | – | –
15 | 1 | CC(C)C(c1cncnc1C(F)(F)F)N(C)C(=O)Cc1ccc(Cl)cc1 (racemic) [Compound 1-22] | 5 | 5 | 5 | 5 | 5 | 5 | 4 | – | – | – | – | –
16 | – | CC(C)C(c1cncnc1C(F)(F)F)N(C)C(=O)Cc1cccc(F)c1 (racemic) [Compound 1-66] | 5 | 5 | – | – | 5 | 5 | 5 | – | – | – | – | –
17 | – | C#CCN(C(=O)Cc1ccccc1)C(c1cncnc1C(F)(F)F)C(C)C (racemic) [1-193] | – | – | – | – | 5 | 5 | 5 | 5 | 5 | – | – | –
18 | 0 | COc1cc(CC(=O)N(C)C(c2cncnc2C(F)(F)F)C(C)C)ccc1Cl (racemic) [Compound 1-47] | 5 | 5 | 5 | 5 | 5 | 5 | 4 | – | – | – | – | –
19 | – | CC(C)C(c1cncnc1C(F)F)N(C)C(=O)Cc1ccc(F)cc1 (racemic) [Compound 1-164] | – | – | – | – | 5 | 5 | 4 | 5 | 5 | – | – | –
20 | – | COc1ccc(C(C)C(=O)N(C)C(c2cncnc2C(F)(F)F)C(C)C)cc1 (mixture of isomers) [1-192] | – | – | – | – | 5 | 5 | 4 | 5 | 5 | – | – | –
21 | – | CN(C(=O)Cc1ccccc1)C(c1cncnc1C(F)(F)F)C1CCCC1 (racemic) [Compound 1-137] | – | – | – | – | 5 | 5 | 5 | 5 | 5 | 5 | 5 | 1
22 | – | CC(C)C(c1cncnc1C(F)(F)F)N(C)C(=O)Cc1ccc(F)c(F)c1 (racemic) [Compound 1-122] | 5 | 5 | – | – | 5 | 5 | 4 | – | – | – | – | –
